Assay results as given in ChEMBL document CHEMBL2321784, “Discovery of 5-benzyl-3-phenyl-4,5-dihydroisoxazoles and 5-benzyl-3-phenyl-1,4,2-dioxazoles as potent firefly luciferase inhibitors” (J Med Chem, 2013).

Assays:
[1] = target: Luciferin 4-monooxygenase (Photinus pyralis) (UniProt P08659); test: Inhibition of recombinant firefly luciferase at 10 uM after 20 mins by luminescence assay
[2] = target: Luciferin 4-monooxygenase (Photinus pyralis) (UniProt P08659); test: Inhibition of recombinant firefly luciferase at 1 nM after 20 mins by luminescence assay
[3] = target: Luciferin 4-monooxygenase (Photinus pyralis, UniProt P08659); test: Inhibition of recombinant firefly luciferase after 20 mins by luminescence assay
Luciferin 4-monooxygenase, sequence (P08659 whole entry): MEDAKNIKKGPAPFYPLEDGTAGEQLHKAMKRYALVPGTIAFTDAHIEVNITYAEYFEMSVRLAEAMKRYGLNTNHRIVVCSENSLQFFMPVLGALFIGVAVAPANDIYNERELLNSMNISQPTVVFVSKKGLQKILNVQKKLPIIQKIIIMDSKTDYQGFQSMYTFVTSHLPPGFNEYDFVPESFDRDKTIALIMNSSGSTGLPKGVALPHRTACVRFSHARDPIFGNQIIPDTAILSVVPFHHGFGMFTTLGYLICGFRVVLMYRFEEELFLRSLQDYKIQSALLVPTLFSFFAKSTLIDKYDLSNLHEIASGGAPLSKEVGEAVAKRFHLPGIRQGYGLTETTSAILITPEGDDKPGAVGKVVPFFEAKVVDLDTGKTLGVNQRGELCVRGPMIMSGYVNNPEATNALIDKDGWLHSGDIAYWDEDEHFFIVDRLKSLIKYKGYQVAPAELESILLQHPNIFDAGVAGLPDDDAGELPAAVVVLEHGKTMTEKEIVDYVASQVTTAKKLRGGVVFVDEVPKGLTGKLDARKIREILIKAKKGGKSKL

Luciferin 4-monooxygenase (Photinus pyralis), sequence (P08659 whole entry): as above

Structure (SMILES)	inhibition [1]	inhibition [2]	IC50 [3]	pIC50 [3]
CCc1ccc(C[C@H]2CC(c3ccc(Cl)cc3)=NO2)cc1	50.2%	2.5%	8710 nM	–
COc1ccc(C2=NO[C@H](Cc3ccccc3OC)C2)cc1	98.8%	46.5%	1.82 nM	–
c1ccc(C[C@H]2CC(c3ccccc3)=NO2)cc1	94.9%	6.5%	174 nM	–
Oc1cccc(C2=NO[C@@H](Cc3ccccc3)C2)c1	71.5%	6.7%	2190 nM	–
COc1ccc(C2=NO[C@@H](Cc3ccc(F)cc3)C2)cc1	41.3%	-1.9%	–	> 5
COc1ccc(C[C@@H]2CC(c3ccc(Cl)cc3)=NO2)cc1	30.4%	3.8%	–	> 5
c1ccc(C[C@@H]2CC(c3ccc4ccccc4c3)=NO2)cc1	97%	13.4%	87.1 nM	–
COc1ccc(C[C@H]2CC(c3ccc(OC)cc3)=NO2)cc1	3.1%	3.3%	–	–
COc1ccc(CC2CC(c3ccc(Cl)cc3)=NO2)cc1OC (racemic)	2.2%	0.9%	–	–
COc1cccc(C2=NO[C@H](Cc3ccccc3)C2)c1	99.4%	65.9%	0.398 nM	–
Oc1ccccc1C1=NO[C@@H](Cc2ccccc2)C1	79.7%	8.9%	1120 nM	–
c1ccc(C[C@H]2CC(c3ccc4ccccc4c3)=NO2)cc1	31.5%	4.9%	–	> 5
COc1ccccc1C1=NO[C@H](Cc2ccccc2)O1	98.2%	48.3%	2.14 nM	–
Fc1ccccc1C1=NO[C@H](Cc2ccccc2)C1	99.3%	57.9%	0.955 nM	–
CC(C)c1ccc(C[C@@H]2CC(c3ccc(Cl)cc3)=NO2)cc1	0.7%	0.4%	–	–
COc1ccc(C2=NO[C@@H](Cc3cccc(OC)c3)C2)cc1	25.5%	4%	–	> 5
COc1ccc(C2=NO[C@@H](Cc3ccccc3OC)C2)cc1	67.1%	6.1%	2190 nM	–

Structure (SMILES)	inhibition [1]	inhibition [2]	IC50 [3]	pIC50 [3]
Fc1cccc(C2=NO[C@H](Cc3ccccc3)C2)c1	98.2%	61.6%	0.955 nM	–
CC(C)c1ccc(C[C@H]2CC(c3ccc(Cl)cc3)=NO2)cc1	31.9%	1.7%	–	> 5
c1ccc(C[C@@H]2CC(c3cccc4ccccc34)=NO2)cc1	62.2%	3%	2510 nM	–
COc1ccccc1C1=NO[C@@H](Cc2ccccc2)O1	63.3%	5%	4270 nM	–
Fc1cccc(C2=NO[C@@H](Cc3ccccc3)C2)c1	84.1%	-3.7%	1000 nM	–
Clc1ccccc1C1=NOC(Cc2ccccc2)C1 (racemic)	99.8%	50.7%	0.933 nM	–
Fc1ccccc1C1=NO[C@@H](Cc2ccccc2)C1	83%	11.3%	1020 nM	–
COc1ccc(C2=NO[C@H](Cc3cccc(OC)c3)C2)cc1	98.7%	43.8%	1.17 nM	–
Clc1ccccc1C1=NOC(Cc2ccccc2)O1 (racemic)	99.6%	68.5%	0.525 nM	–
Oc1ccccc1C1=NO[C@H](Cc2ccccc2)C1	98.4%	48.1%	1.95 nM	–
Oc1cccc(C2=NO[C@H](Cc3ccccc3)C2)c1	99.7%	47%	0.832 nM	–
COc1ccccc1C1=NO[C@@H](Cc2ccccc2)C1	57.5%	5.2%	6920 nM	–
COc1ccc(C[C@H]2CC(c3ccc(Cl)cc3)=NO2)cc1	1.7%	1%	–	–
COc1ccc(C[C@@H]2CC(c3ccc(OC)cc3)=NO2)cc1	37.4%	3.1%	–	> 5
c1ccc(C[C@H]2CC(c3cccc4ccccc34)=NO2)cc1	41.5%	5.5%	–	> 5
Oc1ccc(/C=C/c2cc(O)cc(O)c2)cc1	99.6%	6.8%	–	–

The next lines start with the values.

inhibition [1]	inhibition [2]	IC50 [3]	pIC50 [3]	Structure (SMILES)
99.5%	76.8%	0.309 nM	–	Fc1ccc(C2=NO[C@H](Cc3ccccc3)C2)cc1
64.2%	1.5%	3240 nM	–	Clc1ccc(C2=NOC(CCc3ccccc3)C2)cc1 (racemic)
88.3%	14.7%	331 nM	–	N#Cc1ccc(C2=NO[C@@H](Cc3ccccc3)C2)cc1
97.6%	20.3%	21.9 nM	–	COc1ccc(C2=NOC(C)(Cc3ccccc3)C2)cc1 (racemic)
91.8%	29.8%	16.2 nM	–	COc1ccccc1CC1CC(c2ccc(Cl)cc2)=NO1 (racemic)
86.8%	1.4%	603 nM	–	Fc1ccc(C[C@H]2CC(c3ccc(Cl)cc3)=NO2)cc1
99.2%	53.6%	0.891 nM	–	N#Cc1ccc(C2=NO[C@H](Cc3ccccc3)C2)cc1
94.8%	26.1%	15.1 nM	–	Clc1cccc(C2=NOC(Cc3ccccc3)C2)c1 (racemic)
98.6%	42%	5.25 nM	–	COc1ccc(C2=NO[C@@H](Cc3ccccc3)O2)cc1
99.2%	53%	0.871 nM	–	Fc1ccc(C[C@@H]2CC(c3ccc(Cl)cc3)=NO2)cc1
42.8%	5.3%	–	> 5	Oc1ccc(C2=NO[C@@H](Cc3ccccc3)C2)cc1
96.4%	63.9%	0.741 nM	–	O=[N+]([O-])c1ccc(C2=NOC(Cc3ccccc3)C2)cc1 (racemic)
88.3%	17.7%	417 nM	–	Clc1ccc(C2=NO[C@@H](Cc3ccccc3)C2)cc1
68%	6.4%	2450 nM	–	COc1ccc(C2=NO[C@@H](Cc3ccccc3)C2)cc1
96%	30.5%	13.8 nM	–	COc1ccc(C2=NO[C@H](CCc3ccccc3)C2)cc1
33.6%	1.1%	–	> 5	COc1cccc(C[C@H]2CC(c3ccc(Cl)cc3)=NO2)c1
99.5%	56.1%	0.955 nM	–	COc1ccc(C2=NO[C@H](Cc3ccccc3)O2)cc1
36.6%	1.9%	–	> 5	Clc1ccc(C2=NO[C@@H](Cc3cccc4ccccc34)C2)cc1
6.8%	2.5%	–	–	COc1ccc(C2=NO[C@@H](CCc3ccccc3)C2)cc1
93.3%	13.1%	316 nM	–	Oc1ccc(C2=NO[C@H](Cc3ccccc3)C2)cc1
95.8%	28.7%	32.4 nM	–	CC1(Cc2ccccc2)CC(c2ccc(Cl)cc2)=NO1 (racemic)
96.7%	20.6%	17 nM	–	COc1cccc(C[C@@H]2CC(c3ccc(Cl)cc3)=NO2)c1
